In patent US20240139211A1, “METHODS AND COMPOSITIONS FOR TREATING AMYOTROPHIC LATERAL SCLEROSIS” (Amylyx Pharmaceuticals, Inc., priority 2022, published 2024):
pEC50: −log10 of the molar value. Where two headings read alike, the source gives them in different places.

What was measured:
CYP2B6 mRNA = test: CYP2B6 gene expression induction in hepatocyte cultures; conditions: for pEC50: read-out: EC50, CYP2B6 gene expression
MATE1 = molecular target: T1, MATE1 (Homo sapiens, UniProt Q96FL8); test: Inhibitor of MATE1, probe substrate uptake; conditions: for potency estimated from few doses: read-out: Estimated IC50, MATE1; for Inhibition of MATE1 / Inhibitor of MATE1: two concentrations per test article
T1 sequence (Q96FL8 1-570): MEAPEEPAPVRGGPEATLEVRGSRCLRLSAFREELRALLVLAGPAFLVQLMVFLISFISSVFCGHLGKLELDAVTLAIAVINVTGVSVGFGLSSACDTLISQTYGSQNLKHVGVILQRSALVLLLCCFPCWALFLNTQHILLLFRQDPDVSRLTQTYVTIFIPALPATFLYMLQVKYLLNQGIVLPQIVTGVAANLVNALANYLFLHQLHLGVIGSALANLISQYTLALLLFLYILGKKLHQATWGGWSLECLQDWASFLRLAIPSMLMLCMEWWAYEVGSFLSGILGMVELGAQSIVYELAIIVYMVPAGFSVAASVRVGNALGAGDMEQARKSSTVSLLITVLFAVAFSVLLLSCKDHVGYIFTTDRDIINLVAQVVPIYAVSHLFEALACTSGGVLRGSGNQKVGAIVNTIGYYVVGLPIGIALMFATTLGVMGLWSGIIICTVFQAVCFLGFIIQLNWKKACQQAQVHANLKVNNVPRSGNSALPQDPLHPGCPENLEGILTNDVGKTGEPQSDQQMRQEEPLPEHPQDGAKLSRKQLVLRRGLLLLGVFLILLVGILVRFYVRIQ

Caco-2 cells = conditions: for Permeability in Caco-2 cell assay: 1 and 10 μM (tauroursodeoxycholic acid: 10 μM)
P-gp = P-gp (Homo sapiens, UniProt P08183); test: Substrate of P-gp (Caco-2 cells, selective inhibitors)
OCT2 = molecular target: T2, OCT2 (Homo sapiens, UniProt O15244); test: Inhibitor of OCT2, probe substrate uptake; conditions: for Inhibition of OCT2 / Inhibitor of OCT2: two concentrations per test article
T2 sequence (O15244 1-555): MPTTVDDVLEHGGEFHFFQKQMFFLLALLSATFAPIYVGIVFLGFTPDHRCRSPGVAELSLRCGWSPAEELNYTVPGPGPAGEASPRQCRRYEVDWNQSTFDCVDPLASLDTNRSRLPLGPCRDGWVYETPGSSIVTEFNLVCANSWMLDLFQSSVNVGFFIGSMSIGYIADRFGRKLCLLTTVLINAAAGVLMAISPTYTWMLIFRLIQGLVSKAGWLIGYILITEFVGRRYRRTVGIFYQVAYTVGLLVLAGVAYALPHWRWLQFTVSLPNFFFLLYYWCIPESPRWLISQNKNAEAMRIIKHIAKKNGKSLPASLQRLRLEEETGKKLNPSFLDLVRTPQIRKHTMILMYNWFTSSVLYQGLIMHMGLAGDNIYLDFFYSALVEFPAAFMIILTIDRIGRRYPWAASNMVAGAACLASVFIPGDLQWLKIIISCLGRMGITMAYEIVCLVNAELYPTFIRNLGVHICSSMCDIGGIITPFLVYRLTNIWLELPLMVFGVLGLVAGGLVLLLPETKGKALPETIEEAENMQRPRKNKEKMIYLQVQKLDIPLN

BCRP = molecular target: T3, BCRP (Homo sapiens, UniProt Q9UNQ0); test: Inhibitor of BCRP, 3H-estrone-3-sulfate efflux in Caco-2 cells
T3 sequence (Q9UNQ0 1-655): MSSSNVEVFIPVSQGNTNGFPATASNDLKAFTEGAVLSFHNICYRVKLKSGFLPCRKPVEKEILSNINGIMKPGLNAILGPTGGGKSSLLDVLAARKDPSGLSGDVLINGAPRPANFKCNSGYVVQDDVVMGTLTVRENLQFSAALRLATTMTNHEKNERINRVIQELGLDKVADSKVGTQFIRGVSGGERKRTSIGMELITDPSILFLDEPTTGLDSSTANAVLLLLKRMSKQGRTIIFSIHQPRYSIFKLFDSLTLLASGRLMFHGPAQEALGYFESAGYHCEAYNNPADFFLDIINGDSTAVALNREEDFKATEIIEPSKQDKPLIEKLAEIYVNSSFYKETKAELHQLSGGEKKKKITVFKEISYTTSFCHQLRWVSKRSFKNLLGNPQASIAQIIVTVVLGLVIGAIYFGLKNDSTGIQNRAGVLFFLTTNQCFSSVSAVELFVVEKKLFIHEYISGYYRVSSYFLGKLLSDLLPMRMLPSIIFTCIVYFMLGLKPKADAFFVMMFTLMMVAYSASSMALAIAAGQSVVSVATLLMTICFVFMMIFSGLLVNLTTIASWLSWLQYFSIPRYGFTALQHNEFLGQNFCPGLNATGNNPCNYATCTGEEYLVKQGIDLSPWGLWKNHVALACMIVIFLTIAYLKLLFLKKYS

OAT3 = molecular target: T4, OAT3 (Homo sapiens, UniProt Q8TCC7); test: Substrate of OAT3, uptake in HEK293 cells
T4 sequence (Q8TCC7 1-542): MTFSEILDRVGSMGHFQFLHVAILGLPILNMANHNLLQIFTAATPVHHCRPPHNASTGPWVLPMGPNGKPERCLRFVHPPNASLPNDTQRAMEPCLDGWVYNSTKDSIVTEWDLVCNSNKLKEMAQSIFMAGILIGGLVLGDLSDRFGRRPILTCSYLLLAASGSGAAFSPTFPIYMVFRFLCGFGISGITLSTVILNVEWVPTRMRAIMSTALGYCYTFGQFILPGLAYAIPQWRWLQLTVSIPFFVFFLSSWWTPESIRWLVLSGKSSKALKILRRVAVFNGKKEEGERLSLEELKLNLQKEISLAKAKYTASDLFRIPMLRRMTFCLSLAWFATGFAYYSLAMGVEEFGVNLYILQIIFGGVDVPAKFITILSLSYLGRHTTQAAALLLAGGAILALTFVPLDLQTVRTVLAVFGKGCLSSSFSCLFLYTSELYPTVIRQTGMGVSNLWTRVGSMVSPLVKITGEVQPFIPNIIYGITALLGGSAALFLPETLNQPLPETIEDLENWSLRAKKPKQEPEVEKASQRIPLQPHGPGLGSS
From the text: Vector-transfected HEK cells were used as a control.

[1] = estimated from two concentrations
[2] = test article 1 and 10 μM, Caco-2 cells
[3] = Caco-2, two concentrations per test article
[4] = two concentrations per test article, Caco-2 cells
[5] = higher test concentration (UDCA: second assay)
[6] = lower test concentration (UDCA: second assay)
[7] = 1 and 10 μM, transport buffer alone

Sequence of P-gp (P08183 whole entry): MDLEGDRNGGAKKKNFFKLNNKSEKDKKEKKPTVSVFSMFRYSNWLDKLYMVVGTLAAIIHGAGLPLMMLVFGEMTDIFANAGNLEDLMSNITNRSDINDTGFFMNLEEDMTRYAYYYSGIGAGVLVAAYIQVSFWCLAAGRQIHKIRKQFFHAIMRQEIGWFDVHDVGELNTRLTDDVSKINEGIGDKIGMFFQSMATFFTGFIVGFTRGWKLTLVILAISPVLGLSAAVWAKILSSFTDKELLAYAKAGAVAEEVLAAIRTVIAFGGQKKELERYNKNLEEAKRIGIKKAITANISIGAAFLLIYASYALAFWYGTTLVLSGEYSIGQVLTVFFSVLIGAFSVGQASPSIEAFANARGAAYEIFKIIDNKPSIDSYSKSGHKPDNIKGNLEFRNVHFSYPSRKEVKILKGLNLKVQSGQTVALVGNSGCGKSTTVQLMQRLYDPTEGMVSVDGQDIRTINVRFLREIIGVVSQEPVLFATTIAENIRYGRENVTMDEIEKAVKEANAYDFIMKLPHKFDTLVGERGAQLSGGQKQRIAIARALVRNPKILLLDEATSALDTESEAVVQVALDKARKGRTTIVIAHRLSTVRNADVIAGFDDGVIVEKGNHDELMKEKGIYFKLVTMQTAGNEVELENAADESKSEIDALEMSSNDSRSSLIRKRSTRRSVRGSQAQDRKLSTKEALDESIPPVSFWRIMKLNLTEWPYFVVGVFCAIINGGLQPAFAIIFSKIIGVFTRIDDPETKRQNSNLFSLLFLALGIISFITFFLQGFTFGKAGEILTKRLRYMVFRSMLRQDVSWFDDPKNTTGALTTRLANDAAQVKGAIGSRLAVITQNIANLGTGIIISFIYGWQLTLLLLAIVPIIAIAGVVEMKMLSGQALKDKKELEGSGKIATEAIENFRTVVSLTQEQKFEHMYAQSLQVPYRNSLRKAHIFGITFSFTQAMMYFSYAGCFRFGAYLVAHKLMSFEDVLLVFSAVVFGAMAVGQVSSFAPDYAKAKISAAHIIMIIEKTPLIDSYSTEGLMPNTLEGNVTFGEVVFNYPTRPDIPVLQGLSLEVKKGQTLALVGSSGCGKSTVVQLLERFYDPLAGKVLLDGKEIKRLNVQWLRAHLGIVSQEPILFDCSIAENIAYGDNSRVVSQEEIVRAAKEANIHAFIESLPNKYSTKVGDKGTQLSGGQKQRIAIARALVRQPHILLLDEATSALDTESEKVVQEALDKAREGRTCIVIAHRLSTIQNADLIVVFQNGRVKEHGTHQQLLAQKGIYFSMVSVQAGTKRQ

Molecule	Emax, CYP2B6 gene expression (CYP2B6 mRNA; Donor 1) [fold]	Emax, CYP2B6 gene expression (CYP2B6 mRNA; Donor 2) [fold]	pEC50 (CYP2B6 mRNA; Donor 2)	potency estimated from few doses (MATE1; [1]) [µM]	Inhibition of MATE1 (MATE1)	Inhibitor of MATE1 (MATE1)	Permeability in Caco-2 cell assay (Caco-2 cells)	Substrate of P-gp (P-gp; Caco-2, 1 and 10 μM)	Substrate of P-gp (P-gp; [2])	Inhibition of OCT2 (OCT2)	Inhibitor of OCT2 (OCT2)	Inhibitor of BCRP (BCRP; [3])	Inhibitor of BCRP (BCRP; [4])	Remaining BCRP activity, % of the control (BCRP; [5]) [%]	Remaining BCRP activity, % of the control (BCRP; [6]) [%]	Substrate of OAT3 (OAT3; 1 and 10 μM)	Substrate of OAT3 (OAT3; test article 1 and 10 μM)	potency estimated from few doses (MATE1; estimated from two doses) [µM]	other results
C[C@H](CCC(=O)NCC(=O)O)[C@H]1CC[C@H]2[C@@H]3[C@@H](O)C[C@@H]4C[C@H](O)CC[C@]4(C)[C@H]3CC[C@]12C [Glycoursodeoxycholic acid, glycoursodeoxycholic acid]	5.60	4.53	5.86	> 100	inhibited	Yes	moderate permeability	as a substrate	Yes	did not inhibit	No	identified as an inhibitor	Yes						Maximum fold induction of CYP2B6 gene expression (CYP2B6 mRNA; Donor 2): 4.80 fold; Emax, CYP2B6 gene expression (CYP2B6 mRNA; Donor 3): 5.78 fold; Maximum fold induction of CYP2B6 gene expression (CYP2B6 mRNA; Donor 3): 5.68 fold; pEC50 (CYP2B6 mRNA; Donor 3): 5.83; Efflux remaining with zosuquidar (P-gp; Caco-2): < 55.3%; Efflux remaining with verapamil (P-gp; Caco-2, at 10 μM): 74.7%; potency estimated from few doses (BCRP; read-out: Estimated IC50, BCRP, estimated from two concentrations, Caco-2 cells): > 100 µM
O=C(O)CCCc1ccccc1 [PB, sodium phenylbutyrate]	8.54	24.4	3.97	< 250	inhibited	Yes	high permeability	not a substrate	No	did not inhibit	No	not an inhibitor	No	84.7	125				pEC50 (CYP2B6 mRNA; Donor 1): 4.72; Uptake activity remaining, MATE1 (MATE1; 250 μM): 43.7%
O=C(O)Cc1ccccc1 [Phenylacetic acid, phenylacetic acid]	11.1				did not inhibit	No^a	high permeability	not a substrate	No	inhibited	Yes	not an inhibitor	No	199	162	not a substrate	No		Uptake activity remaining, OCT2 (OCT2; 7500 μM): 24.5%; potency estimated from few doses (OCT2; read-out: Estimated IC50, OCT2, estimated from two concentrations): < 7500 µM
tauroursodeoxycholic acid [TUDCA]				> 50	inhibited	Yes	moderate in both directions	as a substrate	Yes	did not inhibit	No	not an inhibitor	No	92.3	111		Yes	> 50	Inducer of CYP2B6 (conclusion) (CYP2B6 mRNA; gene expression and enzyme activity, three donors): did not meet the classification requirements to be identified as an inducer; Uptake by OAT3 (OAT3; 1 and 10 μM): ≥ 9.27 pmol/minute/mg protein; Papp basolateral to apical (Caco-2 cells; 1 μM): 8.17 ×10⁻⁶ cm/s; Papp apical to basolateral (Caco-2 cells; 10 μM): 2.43 ×10⁻⁶ cm/s; Papp basolateral to apical (Caco-2 cells; 10 μM): 3.6 ×10⁻⁶ cm/s
ursodeoxycholic acid				< 500	inhibited	Yes	high in both directions	not a substrate	No	did not inhibit	No	not an inhibitor	No	155	228	not a substrate	No	< 500	Apparent permeability in both directions (Caco-2 cells; 1 and 10 μM): > 18 ×10⁻⁶ cm/s; Papp apical to basolateral (Caco-2 cells; [7]): ≥ 18.9 ×10⁻⁶ cm/s; Papp basolateral to apical (Caco-2 cells; [7]): ≥ 22.8 ×10⁻⁶ cm/s; BCRP activity, % of the control (BCRP; first assay, 500 μM): 130%
